Test results reported in patent US9434701B2, “Aminoquinoxaline derivatives for treatment of neurodegenerative diseases” (CENTRE NATIONAL DE LA RECHERCHE SCIENTIFIQUE (CNRS), priority 2011, dated 2016).
Where two headings read alike, the source gives them in different places.

Tests used:
[1] = tested on: fetal dopaminergic neurons (TH+) in culture; assay: dopaminergic neuron spontaneous degeneration model, second protocol (Mourlevat et al.), TH+ neuron count after 10 days; assay type: cell-based; conditions: Rattus norvegicus, 240 h, effect at 100 μM, 10 days of culture, read-out: TH+ neurons in % of control ± Std. Err.
Experimental: This second protocol is described in the article by Mourlevat, P. P. Michel et al. Molecular Pharmacology 2003, 64:578-586 (“Prevention of Dopaminergic Neuronal Death by Cyclic AMP in Mixed Neuronal/Glial Mesencephalic Cultures Requires the Repression of Presumptive Astrocytes”). […] Compounds according to the invention were evaluated at 50 μM except compound 4bc which was assessed at 100 μM.

[2] = passage of the blood-brain barrier, IP study: brain extract concentration by HPLC-MS/MS; assay type: in vivo, Rj Orl: SWISS mice; conditions: for concentration at 2 h: male, Rj Orl: SWISS, mouse, brain extract, ip, 70 mg/kg, IP 70 mg/kg, ± SEM
Experimental: Male Rj Orl: SWISS, mice, approximately 5 weeks old and weighing between 20 and 24 g at arrival (R Janvier Breeding Center, France) were kept in the animal room at constant temperature (22±1° C.) and controlled humidity (55±20%), with a 12-hour light/dark cycle (8:00 a.m.-8:00 p.m.). During the acclimation and study period, the mice had free access to food and water. All the experiments were conducted in compliance with the conditions of decree 2001-464 of May 29, 2001 relative to animal experimentation.
Two treatment modes were used: intraperitoneal (IP) administration for 1 or 2 days or oral or per os administration for 5 days.
The solution of compound 4bc to be injected at a concentration of 7.0 g/L was prepared in a carrier containing 10% Tween 20+20% DMSO+70% 0.9% NaCl in water.
Three animal groups were created: • mice who received the carrier by IP at 10 mL/kg (Group V, n=2), • mice treated with compound 4bc by IP at 70 mg/kg and at 10 mL/kg (Group T, n=6), • one untreated mouse that was used as a […] control during analysis.
Treated mice T2 and T3 received treatments as follows:
Treated mice T1, T4, T5 and T6 as well as the mice receiving the carrier V1 and V2 received the treatments/carriers as follows:
The mice were anesthetized by an injection of 0.1 mL of a 6% sodium pentobarbital solution and then the mice were infused to eliminate the compound present in the plasma with a 0.9% NaCl solution containing heparin (200 μL of heparin choay to 5000 IU/mL in one liter of 0.9% NaCl). Each animal was infused with a minimum of 50 mL of this solution. The mouse was then decerebrated and the cerebellum, brainstem and olfactory bulbs were removed by dissection.
For the IP study, the brain was dissected into two parts (right and left hemisphere).
Each mouse brain sample treated with compound 4bc was weighed, placed in MeOH (100 μl MeOH per 10 mg of brain tissue) and then mixed by sonication. The suspensions thus obtained were centrifuged at 14,000 g for 7 minutes at 4° C. for IP or at 27,000 g for 10 minutes, at 4° C. for oral administration. The supernatants, diluted by half in MeOH, were transferred into HPLC vials for analysis of the presence of compound 4bc by HPLC-MS/MS.
Detection and quantification, based on peak area, were done by HPLC-MS/MS in MRM mode.
The HPLC system was composed of a Dionex Ultimate 3000 pump equipped with a Dionex WPS-3000PL automatic sample injector. The mass spectrometer used is a Water-Micromass Quattro Ultima equipped with an electrospray ionization source and a triple quadrupole analyzer. Data was acquired and analyzed by Masslynx 3.5.
Liquid chromatography was performed in isocratic mode with a Nucleodur™ (Macherey-Nagel) C18, 125×2.1 mm column with a particle size of 5.0 μm. The mobile phase was composed of a mixture of two phases A and B, in a proportion of 30/70. Phase A was composed of 1% acetic acid in water (v/v). Phase B was composed of 1% acetic acid in MeOH (v/v). The flow rate was set at 0.2 mL/min; the injection volume was 5 μl.
The mass spectrometer was connected to the HPLC system by using an electrospray ionization source. A switching valve was programmed before injection of the sample for rinsing and equilibration of the capillary, so as to prevent any accumulation of salt in the source capillary. The capillary voltage was set at 4000 V and the cone voltage at 80 V; the source temperature was set at 120° C.; the desolvation gas (N2) was set at a flow rate of 529 and the temperature at 350° C. The mass spectra were obtained in positive mode. The parameters were optimized to obtain the maximum molecular ion ([M+H]^+) at m/z 236.41, corresponding to compound 4bc. Collision was done by argon and the energy was set at 30 eV in MS/MS mode for detecting mass transitions: m/z 236.41→117.08; 236.41→131.10 and 236.41→158.27.

Cc1nc2ccc(N)cc2nc1-c1ccccc1 [Compound 4bc]
activity at 100 µM [1]: 139 ± 11% | brain extracts at 4-6 h less concentrated than at 2 h post-treatment ([2]; IP): 2000 times | elimination from the brain over time ([2]; IP): eliminated quickly from the brain | mean value of extracts analyzed later lower than previously calculated (ratio of the means) ([2]; IP, 2 h brain extracts, stored at 4° C.): approximately 6 times | detection in old brain extracts ([2]; IP, euthanized between 4 and 6 h after the last treatment, extracts stored 40 days at 4° C., n=8): detectable | crossing of the blood brain barrier in vivo ([2]; intraperitoneal administration): able to cross the blood brain barrier | concentration at 2 h ([2]; euthanized 2 h after last treatment, extracts stored 40 days at 4° C., n=4, read-out: mean concentration in old brain extracts): 1390 ng/mL | concentration at 2 h ([2]; euthanized 2 h after the last treatment, n=3, read-out: mean concentration in brain extract): 8830 ng/mL
